For data set [1], the system named is colorectal cancer cells. The data set can be described thus: Cell proliferation assay (Trypan Blue exclusion). Format: cell-based, human. The protocol:
Cancer cells (7.5 × 10^3) were cultured in 60-mm Petri dishes and treated with DMSO or NK-A 17E-233I (25 µM) to evaluate their proliferation at various time intervals (24 h, 48 h, 96 h, 120 h) using the Trypan Blue exclusion assay.

Data set [2] has as its system colorectal cancer cells. The data set can be described thus: Live-cell imaging. Format: cell-based, human. The following applies: 25 µM, 24 h time-lapse. The protocol: Following staining, cells were treated with either DMSO or NK-A 17E-233I (25 µM) and subjected to time-lapse imaging for another 24 h, with an acquisition time of 1 h between frames. Cells were maintained at 37 °C with 5% CO2 and 95% humidity using Okolab chambers and monitored with a Leica DMi8 microscope equipped with a Leica DFC9000GT camera. Images were captured in brightfield and at 405 nm to visualize the nuclei using a 20X objective (HC PL FLUOTAR 20x/0.75). Images were processed using Leica Application Suite X (LAS X) Life Science Microscope Software (v3.5.5.19976, RRID:SCR_013673).

In data set [3] the test system is SW620 cells. Put plainly: Complex I- and complex II-dependent respiration (permeabilized cells). The format is cell-based, human. To be noted: 25 µM, 24 h. How it is done: Following treatment, cells were detached using trypsin–EDTA, washed with PBS, and resuspended in MiR05 media (composed of 110 mM sucrose, 60 mM potassium-lactobionate, 0.5 mM EGTA, 3 mM MgCl2·6H2O, 20 mM taurine, 10 mM KH2PO4, 20 mM HEPES adjusted to pH 7.1 with KOH at 37 °C, and 1 g/L BSA) at a concentration of 5 × 10^5 cells/mL. The cells were then transferred into 2 mL Oxygraph chambers for real-time measurement of OCR. Initial permeabilization was achieved using 7 μg of digitonin, followed by the sequential addition of substrates and inhibitors: 5 mM ADP, 2 mM malate, 10 μM cytochrome c, 5 mM pyruvate, 10 mM glutamate, 10 mM succinate, 0.5 μM rotenone, and 2.5 μM antimycin A. Mitochondrial membrane integrity was confirmed through the addition of cytochrome c (10 μM), with observed changes in OCR remaining below 10%. Complex I-mediated respiration was evaluated following the addition of complex I substrates (malate/pyruvate/glutamate), while complex II-mediated respiration was assessed in the presence of the complex II substrate (succinate) and the complex I inhibitor (rotenone). Residual oxygen consumption after the addition of antimycin A was subtracted from all the results to yield mitochondria-specific rates. […] Oxygen consumption rates were expressed as picomoles (pmol) per second per million cells (Mill) and normalized to the mitochondrial copy number in each sample.

In data set [4] the test system is SW620 cells. The data set can be described thus: RNA sequencing (RNASeq). Format: cell-based, human. The following applies: 25 µM, 48 h. How it is done:
Cancer cells (2.2 × 10^6) were cultured in 100-mm Petri dishes and treated with either DMSO or NK-A 17E-233I (25 µM) for a duration of 48 h. Dry cell pellets were collected from three independent biological replicates and submitted to Novogene for RNASeq analysis (Cambridge, UK). The raw data are available in detail at the Zenodo repository (10.5281/zenodo.14833856).

Data set [5] deals with T1, recombinant human DHODH (full-length wild-type) (Homo sapiens, UniProt Q02127).
T1 construct: The generation of recombinant enzymes (full-length wild-type); made in house
Put plainly: In vitro DHODH enzyme activity assay. The format is biochemical. To be noted: for IC50: 0.1 mM QD, mean ± SD (n = 4–6); for Ki: assuming pure competitive inhibition. The protocol: (§1) The assays to determine the inhibition constants of inhibitors of the recombinant DHODH enzymes are described in [28, 29].
(§2) The IC50 values were determined by fitting the equation V = V max/(1 + (I/IC50)^h) to the assay data using SigmaPlot14 (Systat Software Inc.). In this equation, V represents the measured enzyme activity, while V max indicates the maximum enzyme activity reached. I denotes the inhibitor concentration, and h describes the slope of the fitted curve.

Another data set deals with T2, DHODH R136C (Homo sapiens, UniProt Q02127, R135C).
T2 construct: made in house
Put plainly: In vitro DHODH enzyme activity assay. The following applies: 1 mM DHO. Format: biochemical. How it is done: as §1, §2

A further data set has as its target T3, Δ29 DHODH (N-truncated) (Homo sapiens, UniProt Q02127).
T3 construct: N-terminal truncated form of human DHODH (Δ29), where the N-terminal transmembrane domain was removed; made in house
Put plainly: In vitro DHODH enzyme activity assay. Format: biochemical. The following applies: 1 mM DHO. The protocol:
as §1, §2

The test system of data set [6] is colorectal cancer cells. Put plainly: RT-qPCR. The format is cell-based, human. The following applies: 25 µM, 48 h. The protocol:
Cancer cells (0.8 × 10^6) were cultured in 60-mm Petri dishes and treated for 48 h with DMSO or NK-A 17E-233I (25 µM). The pellets were collected, and the total RNA was isolated using TRI Reagent Solution (#T9424; Sigma-Aldrich). The concentration and purity of RNA samples were assessed using a Nanodrop (Nanodrop ND-1000 spectrophotometer, Thermo Fisher) and stored at -80°C. Complementary DNA (cDNA) was generated using MultiScribe Reverse Transcriptase (#A25776; ThermoFisher Scientific), and the resulting cDNA was diluted and analyzed by qPCR using the StepOnePlus Real-Time PCR System (Applied Biosystems) with Power UP SYBR Green Master Mix (#A25741; ThermoFisher Scientific). β-actin was used as the endogenous control gene, and the fold change was calculated using the 2^−ΔΔCT method. Data processing was conducted using StepOnePlus Software for Windows, v2.3. All primer sequences were designed using the Primer 3 Plus software, validated by the Primer-BLAST tool, and submitted to Integrated DNA Technologies (IDT, Madrid, Spain). The primer sequences utilized in this study are listed below: […]
On the technique in general: Real-time PCR tracks product formation cycle by cycle.

What is called IC50 is the concentration that inhibits the measured activity by half. Broadly, the Ki is a measure of affinity in units of concentration, obtained from inhibition or displacement.

T1 sequence (Q02127 whole entry): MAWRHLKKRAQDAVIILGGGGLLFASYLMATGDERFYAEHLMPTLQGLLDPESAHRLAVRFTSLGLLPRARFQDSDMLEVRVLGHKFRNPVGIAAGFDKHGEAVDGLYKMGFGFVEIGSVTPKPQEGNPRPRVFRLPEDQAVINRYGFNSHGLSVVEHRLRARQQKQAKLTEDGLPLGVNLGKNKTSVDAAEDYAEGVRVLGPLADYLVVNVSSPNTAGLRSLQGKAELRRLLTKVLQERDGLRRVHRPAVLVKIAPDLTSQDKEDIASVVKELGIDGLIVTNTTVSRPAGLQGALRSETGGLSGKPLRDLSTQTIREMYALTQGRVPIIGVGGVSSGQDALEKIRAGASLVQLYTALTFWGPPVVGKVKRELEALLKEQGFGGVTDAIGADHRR
T3 sequence (Q02127 29-395, stated change not applied): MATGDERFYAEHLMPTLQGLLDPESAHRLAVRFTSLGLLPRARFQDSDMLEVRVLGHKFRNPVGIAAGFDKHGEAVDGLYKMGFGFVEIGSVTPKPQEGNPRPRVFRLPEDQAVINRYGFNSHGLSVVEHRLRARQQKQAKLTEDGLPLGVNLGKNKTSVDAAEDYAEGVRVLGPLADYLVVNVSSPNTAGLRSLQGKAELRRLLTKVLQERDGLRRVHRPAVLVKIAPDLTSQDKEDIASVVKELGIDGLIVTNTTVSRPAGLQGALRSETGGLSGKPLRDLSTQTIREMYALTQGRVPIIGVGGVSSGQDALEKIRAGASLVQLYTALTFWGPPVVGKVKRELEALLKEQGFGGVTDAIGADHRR
T2 sequence (Q02127 whole entry R135C): as the sequence (Q02127 whole entry) above, with R135C counted along it

For the compound `COc1cc(C)c(Oc2cc(C)cc(O)c2O)c(O)c1` [NK-A 17E-233I], the cell proliferation result with colorectal cancer cells [1] (25 µM, over time) was “reduced”. For the same compound, the “growth inhibition in the presence of physiological uridine” value in the data set on colorectal cancer cells [1] (SW620, 25 µM, 24 h, 5 µM and 20 µM uridine) was “did not mitigate the growth inhibitory effects”. The “progression through mitosis (G2/M)” value in the data set on colorectal cancer cells [2] was “failed to progress through mitosis”. For the same compound, the “OCR supported by complex I and II substrates” value with SW620 cells [3] is “did not alter”. In addition, the “POLD2 gene expression (RNASeq)” value in the data set with SW620 cells [4] is given as “significantly downregulated”. For the same compound, the “mode of inhibition with respect to DHO” value in data set [5] is given as “competitive inhibitor”. The IC50 amounted to 28.9 ± 14.5 µM in data set [5] (0.1 mM DHO), 98.3 ± 42.6 µM in data set [5] (1 mM DHO), 48.6 ± 30.8 µM against DHODH R136C (mean ± SD (n = 3)) and 99.1 ± 47.8 µM against Δ29 DHODH (N-truncated) (mean ± SD (n = 3)). Further, in data set [5] (1 mM vs 0.1 mM DHO), the “fold increase in the IC50 value with increasing concentrations of DHO” value came to 3.4 fold. For the same compound, the Ki in data set [5] (derived from the IC50 at 0.1 mM DHO) is 3.9 µM; in data set [5] (derived from the IC50 at 1 mM DHO), 1.5 µM. The “average of the fitted slopes” value on DHODH R136C (± SD) amounted to 0.6 ± 0.2; on Δ29 DHODH (N-truncated) (± SD), 1 ± 0.8. In the data set with colorectal cancer cells [6], the “mRNA expression levels of POLD1 and POLD2” value is listed as “reductions”.

These data come from article PMC12534982 (Journal of Experimental & Clinical Cancer Research : CR, 2025).
